The results in this text go back to patent publication US20240360157A1, “TYK2 INHIBITORS” (BIOGEN MA INC., priority 2021, published 2024).

Holding throughout (type): biochemical
In test [1] the target is human TYK2 catalytic kinase (JH1) domain (Homo sapiens (Human), UniProt P29597). The test can be described thus: ADP-Glo Kinase Assay, recombinant TYK2 catalytic kinase (JH1) domain. The note with it: recombinant JH1 domain 2 nM, 10 μM ATP, JAK3-974 peptide, mean, read-out: TYK2 biochem IC50 (nM) Mean. Summed up:
(§1)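 Reactions ran 100 min with 50 μM substrate peptide (JAK3-342 for JAK1 at 4 nM enzyme; JAK3-974 for JAK2 0.2 nM, JAK3 0.3 nM, TYK2 2 nM), and ADP formed was read by ADP-Glo luminescence. Eleven-point 3-fold series from 10 or 1 μM; IC50 fitted by 4-parameter logistic model.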

Test [2] has as its target human JAK1 catalytic kinase (JH1) domain (Homo sapiens (Human), UniProt P23458). The test can be described thus: ADP-Glo Kinase Assay, recombinant JAK1 catalytic kinase (JH1) domain. The note with it: recombinant JH1 domain 4 nM, 35 μM ATP, JAK3-342 peptide, mean, read-out: JAK1 biochem IC50 (nM) Mean. The method in brief: as §1
Test [3] deals with human JAK2 catalytic kinase (JH1) domain (Homo sapiens (Human), UniProt O60674). The test can be described thus: ADP-Glo Kinase Assay, recombinant JAK2 catalytic kinase (JH1) domain. The conditions noted are these: recombinant JH1 domain 0.2 nM, 15 μM ATP, JAK3-974 peptide, mean, read-out: JAK2 biochem IC50 (nM) Mean. Summed up:
as §1
In general terms: ADP-Glo first removes unused ATP, then detects ADP through luciferase.

Test [4] deals with human JAK3 catalytic kinase (JH1) domain (Homo sapiens (Human), UniProt P52333). Kind of test: ADP-Glo Kinase Assay, recombinant JAK3 catalytic kinase (JH1) domain. The note with it: recombinant JH1 domain 0.3 nM, 4 μM ATP, JAK3-974 peptide, mean, read-out: JAK3 biochem IC50 (nM) Mean. The method in brief: as §1
Chain of human JAK3 catalytic kinase (JH1) domain (P52333 822-1111): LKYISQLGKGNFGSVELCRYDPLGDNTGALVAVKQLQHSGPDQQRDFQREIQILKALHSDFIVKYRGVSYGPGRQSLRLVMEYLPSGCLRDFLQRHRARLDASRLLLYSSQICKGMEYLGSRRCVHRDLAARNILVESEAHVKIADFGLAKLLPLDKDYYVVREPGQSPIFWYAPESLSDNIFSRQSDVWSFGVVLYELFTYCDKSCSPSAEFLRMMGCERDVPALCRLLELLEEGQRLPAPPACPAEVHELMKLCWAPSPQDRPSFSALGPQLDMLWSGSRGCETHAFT

Where a name gives a salt, the structure may show the parent alone. Bounds are passed on as bounds.

Chain of human JAK1 catalytic kinase (JH1) domain (P23458 875-1153): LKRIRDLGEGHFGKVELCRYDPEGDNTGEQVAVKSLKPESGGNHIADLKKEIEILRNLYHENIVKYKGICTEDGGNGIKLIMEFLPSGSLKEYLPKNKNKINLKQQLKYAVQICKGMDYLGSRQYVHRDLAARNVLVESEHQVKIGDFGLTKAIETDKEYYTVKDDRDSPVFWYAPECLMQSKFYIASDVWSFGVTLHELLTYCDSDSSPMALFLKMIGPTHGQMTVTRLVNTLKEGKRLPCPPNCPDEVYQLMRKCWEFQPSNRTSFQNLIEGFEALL
Chain of human JAK2 catalytic kinase (JH1) domain (O60674 849-1124): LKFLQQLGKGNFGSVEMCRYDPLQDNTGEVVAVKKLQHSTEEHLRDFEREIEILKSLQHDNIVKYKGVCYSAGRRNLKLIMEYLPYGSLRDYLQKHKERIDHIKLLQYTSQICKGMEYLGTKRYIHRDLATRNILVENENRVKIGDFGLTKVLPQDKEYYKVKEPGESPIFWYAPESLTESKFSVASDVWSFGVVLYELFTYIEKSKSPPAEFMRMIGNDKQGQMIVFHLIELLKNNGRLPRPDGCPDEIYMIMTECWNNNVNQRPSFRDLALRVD
Chain of human TYK2 catalytic kinase (JH1) domain (P29597 897-1176): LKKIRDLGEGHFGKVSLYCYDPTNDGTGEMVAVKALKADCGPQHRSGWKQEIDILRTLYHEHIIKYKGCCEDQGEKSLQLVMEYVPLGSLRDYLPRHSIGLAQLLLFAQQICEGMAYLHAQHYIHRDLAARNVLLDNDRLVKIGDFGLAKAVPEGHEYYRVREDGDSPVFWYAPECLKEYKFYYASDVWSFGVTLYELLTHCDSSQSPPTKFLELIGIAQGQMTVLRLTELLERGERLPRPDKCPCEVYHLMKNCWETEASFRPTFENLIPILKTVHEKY

As to `O=C(C1C(F)(F)C12CCC2)N1C2CCC1CN(c1ncnn3cc(-c4cnn(C(F)F)c4)cc13)C2` (stereo not drawn) [Example 7, (3-(6-(1-(difluoromethyl)-1H-pyrazol-4-yl)pyrrolo[2,1-f][1,2,4]triazin-4-yl)-3,8-diazabicyclo[3.2.1]octan-8-yl)(2,2-difluorospiro[2.3]hexan-1-yl)methanone], the IC50 in test [1] turned out to be 156 nM; in test [2], 960 nM; in test [3], 3960 nM; in test [4] it was 6300 nM.

`O=C([C@@H]1C[C@H]1F)N1C2CCC1CN(c1ncnc3[nH]c(-c4ccc(C(F)(F)F)nc4)cc13)C2` [Example 228, ((1S,2R)-2-fluorocyclopropyl)(3-(6-(6-(trifluoromethyl)pyridin-3-yl)-7H-pyrrolo[2,3-d]pyrimidin-4-yl)-3,8-diazabicyclo[3.2.1]octan-8-yl)methanone]: the concentration for half-maximal inhibition (IC50) is 41.2 nM in test [1], 315 nM in test [2], 813 nM in test [3] and 7440 nM in test [4].

For `O=C(C1CC1)N1C2CCC1CN(c1ncnn3cc(-c4cccnc4)cc13)C2` [Example 183], the IC50 in test [1] was determined as 557 nM; in test [2], 3290 nM; in test [3] it was 10000 nM; in test [4] it was 8640 nM.

With `Cn1cc(-c2cc3c(N4CC5CCC(C4)N5C(=O)C4COC4)ncnn3c2)cn1` [Example 71, (3-(6-(1-methyl-1H-pyrazol-4-yl)pyrrolo[2,1-f][1,2,4]triazin-4-yl)-3,8-diazabicyclo[3.2.1]octan-8-yl)(oxetan-3-yl)methanone], the half-maximal inhibitory concentration (IC50) came out at 911 nM in test [1], 5320 nM in test [2], 10000 nM in test [3] and 10000 nM in test [4].

Regarding `O=C(C1CC(O)(C(F)(F)F)C1)N1C2CCC1CN(c1ncnn3cc(-c4cnn(C(F)F)c4)cc13)C2` (stereo not drawn) [Example 36, (3-(6-(1-(difluoromethyl)-1H-pyrazol-4-yl)pyrrolo[2,1-f][1,2,4]triazin-4-yl)-3,8-diazabicyclo[3.2.1]octan-8-yl)(3-hydroxy-3-(trifluoromethyl)cyclobutyl)methanone trifluoroacetate], the IC50 in test [1] came out at 968 nM; in test [2], 2200 nM; in test [3] it was 7490 nM; in test [4], 5840 nM.

In the case of `Cn1cc(-c2cc3c(N4CC5CCC(C4)N5C(=O)C4CC4)ncnc3[nH]2)cn1` [Example 220, cyclopropyl(3-(6-(1-methyl-1H-pyrazol-4-yl)-7H-pyrrolo[2,3-d]pyrimidin-4-yl)-3,8-diazabicyclo[3.2.1]octan-8-yl)methanone], the concentration for half-maximal inhibition (IC50) was 34 nM in test [1], 242 nM in test [2], 690 nM in test [3] and 501 nM in test [4].

Take `COc1cc(-c2cc3c(N4CC5CCC(C4)N5C(=O)[C@@H]4C[C@H]4F)ncnn3c2)ccn1` [Example 89, ((1S,2R)-2-fluorocyclopropyl)(3-(6-(2-methoxypyridin-4-yl)pyrrolo[2,1-f][1,2,4]triazin-4-yl)-3,8-diazabicyclo[3.2.1]octan-8-yl)methanone]: the half-inhibitory concentration (IC50) was 28.2 nM in test [1], 236 nM in test [2], 856 nM in test [3] and 4240 nM in test [4].

With `O=C([C@@H]1C[C@H]1CO)N1C2CCC1CN(c1ncnn3cc(-c4cnn(C(F)F)c4)cc13)C2` (single isomer, unassigned) [Example 40], the 50% inhibitory concentration (IC50) in test [1] was 289 nM; in test [2] it was 5120 nM; in test [3], 9400 nM; in test [4] it was not below 10000 nM.

Take `COc1ccc(-c2cc3c(N4CC5CCC(C4)N5C(=O)C4CC4)ncnn3c2)cc1C#N` [Example 185]: the IC50 was found to be 398 nM in test [1], 2540 nM in test [2], 10000 nM in test [3] and 10000 nM in test [4].

Turning to `O=C(C1CCC1F)N1C2CCC1CN(c1ncnn3cc(-c4cnn(C(F)F)c4)cc13)C2` (stereo not drawn) [Example 9, (3-(6-(1-(difluoromethyl)-1H-pyrazol-4-yl)pyrrolo[2,1-f][1,2,4]triazin-4-yl)-3,8-diazabicyclo[3.2.1]octan-8-yl)(2-fluorocyclobutyl)methanone], the half-inhibitory concentration (IC50) was 202 nM in test [1], 3080 nM in test [2], 5700 nM in test [3] and 5780 nM in test [4].

Consider `COc1cc(-c2cc3c(N4CC5CCC(C4)N5S(=O)(=O)C4CC4)ccnc3[nH]2)ccn1` [Example 194], for which the IC50 in test [1] was 21 nM; in test [2], 116 nM; in test [3] it was 80 nM; in test [4], 612 nM.

On to `Cn1ncc(-c2cc3c(N4CC5CCC(C4)N5C(=O)[C@@H]4C[C@H]4F)ccnn3c2)c1F` [Example 121, (3-(6-(5-fluoro-1-methyl-1H-pyrazol-4-yl)pyrrolo[1,2-b]pyridazin-4-yl)-3,8-diazabicyclo[3.2.1]octan-8-yl)((1S,2R)-2-fluorocyclopropyl)methanone], for which the IC50 in test [1] came out at 4.7 nM; in test [2], 117 nM; in test [3], 113 nM; in test [4] it was 606 nM.

As for `COc1cc(-c2cc3c(N4CC5CCC(C4)N5C(=O)[C@@H]4C[C@H]4F)ccnn3c2)cnn1` [Example 137, ((1S,2R)-2-fluorocyclopropyl)(3-(6-(6-methoxypyridazin-4-yl)pyrrolo[1,2-b]pyridazin-4-yl)-3,8-diazabicyclo[3.2.1]octan-8-yl)methanone], the IC50 in test [1] came out at 17.6 nM; in test [2], 150 nM; in test [3], 220 nM; in test [4], 4200 nM.

`CNc1cc(-c2cc3c(N4CC5CCC(C4)N5C(=O)[C@@H]4C[C@H]4F)ncnn3c2)ccn1` [Example 94, ((1S,2R)-2-fluorocyclopropyl)(3-(6-(2-(methylamino)pyridin-4-yl)pyrrolo[2,1-f][1,2,4]triazin-4-yl)-3,8-diazabicyclo[3.2.1]octan-8-yl)methanone]: the IC50 in test [1] came out at 18.6 nM; in test [2] it was 230 nM; in test [3], 590 nM; in test [4], 2940 nM.

Regarding `CCn1cc(-c2cc3c(N4CC5CCC(C4)N5C(=O)C4CC4)ncnn3c2)cn1` [Example 147], the half-maximal inhibitory concentration (IC50) in test [1] came to 147 nM; in test [2], 974 nM; in test [3], 2960 nM; in test [4], 2090 nM.

`CN1CCOC(c2nc3c(N4CC5CCC(C4)N5C(=O)[C@@H]4C[C@H]4F)ccnc3[nH]2)C1` (stereo partly drawn) [Example 218, ((1S,2R)-2-fluorocyclopropyl)(3-(2-(4-methylmorpholin-2-yl)-3H-imidazo[4,5-b]pyridin-7-yl)-3,8-diazabicyclo[3.2.1]octan-8-yl)methanone]: the half-inhibitory concentration (IC50) worked out at 783 nM in test [1], 2940 nM in test [2], 10000 nM in test [3] and 10000 nM in test [4].

`O=C([C@H]1C[C@H]1F)N1C2CCC1CN(c1ncnn3cc(-c4cnn(C(F)F)c4)cc13)C2` (single isomer, unassigned) [Example 73]: the half-maximal inhibitory concentration (IC50) in test [1] is 987 nM; in test [2], 2350 nM; in test [3], not below 10000 nM; in test [4] it was 8860 nM.

In the case of `COc1ncnc(-c2cc3c(N4CC5CCC(C4)N5C(=O)[C@@H]4C[C@H]4F)ccnn3c2)c1F` [Example 107, (3-(6-(5-fluoro-6-methoxypyrimidin-4-yl)pyrrolo[1,2-b]pyridazin-4-yl)-3,8-diazabicyclo[3.2.1]octan-8-yl)((1S,2R)-2-fluorocyclopropyl)methanone], the IC50 in test [1] was 92.3 nM; in test [2], 862 nM; in test [3], 1680 nM; in test [4] it was 10000 nM.

What is called IC50 is the point on the concentration scale where inhibition reaches its midpoint.
